Data on three substances can be found in patent US20080146499A1, “Identification of the Precise Amino Acid Sequence of the Epitope Recognized by the Potent Neutralizing Human Anti-Hiv-1 Monoclonal Antibody Igg1b12” (priority 2005, published 2008).

One test has as its system N terminal peptide. To be noted: i.p. immunizations days 1, 15, 30, 45, 60; sera day 67; compared to control mice; FIG. 13 B.
The target in test [1] is biotinylated N-term peptide (biotin-…) (HIV-1). Kind of test: antigen capture ELISA, plates coated with IgG1 b12, biotinylated peptide detected with streptavidin alkaline phosphatase; reference: scrambled peptide. (ELISA stands for enzyme-linked immunosorbent assay.)
The test system of the next test is IgG1b12 antibody. Nature of the test: Synthetic gp120 peptide binding to bead-linked IgG1b12, measured by mass spectrometry. To be noted: synthetic peptides as starting material; FIG. 5. More on the design: species or system human.

No end group written: not given here. *: point of attachment. Biotin = O=C1N[C@H]2[C@H](CS[C@H]2CCCCC(=O)*)N1

Procedure for IgG1b12 antibody: The antibody was linked to cyanogen-bromide activated sepharose beads (Sigma-Aldrich, Oakville, Ontario). Epitope excision was performed to include potential conformational epitopes. The antibody-bead mixture was incubated with either MN or IIIB HIV-1 gp120 (ImmunoDiagnostics, Inc. Woburn, Mass.) or synthetic HIV-1 gp120 peptides (United Biochemical Research, Inc, Seattle, Wash., USA) for 2 hours under physiological conditions. After several washes, trypsin (Calbiochem-Novabiochem Corporation, San Diego, Calif., USA), or Glu-C (Roche Diagnostics Canada. Laval, Quebec) enzyme digests were performed. Unbound, digested material was washed away. Antibody-bound fragments protected from digestion were analyzed by mass spectrometry. Bead+antibody+peptide complex were spotted on a gold plate along with DHB matrix (Sigma-Aldrich, Oakville, Ontario) (3,4). The sample was analyzed on the prototypic QqTOF mass spectrometer by matrix-assisted laser desorption/ionization.
Epitope mapping experiments were performed using synthetic peptides. One peptide, the “N-term” (amino terminus) peptide was tested for it's binding to IgG1b12. The N-term sequence is as follows: [sequence]. A second peptide covered the CD4 binding site, including the isoleucine (I) residue.
Procedure for N terminal peptide: For immunogenicity studies, 4 groups of 4 BALB/c mice (16 total) were immunized intraperitoneally (i.p.) 5 times over 2 months. The first group of mice received PBS plus Freund's adjuvant in each immunization, and the second group received 10-50 kg gp120. The third and fourth groups received 10 μg biotinylated peptide (group 3 received N-term, group 4, scrambled) linked to avidin.
ELISAs to detect Ab responses in mice were carried out by coating 96 well plates with 2.5 μg/ml gp120 or 5 μg/ml biotinylated peptide overnight at 4° C. Blood was obtained by venous tail puncture, serum was obtained by collecting the supernatant of blood that had been incubated at 4° C. for one hour and centrifuged in an Eppendorf microcentrifuge (Centrifuge 5417C, Brinkmann Instruments, Ltd. Mississauga, ON) twice for 30 minutes at maximum speed. Serum was diluted at 1/50 down in doubling dilutions and incubated on plates for 2 hours at 37° C., washed, and HRP-goat anti-mouse secondary antibody (Southern Biotechnology Associates, Inc., Birmingham, Ala.) was added. ABTS substrate (Roche Diagnostics Canada, Laval, PQ) was used for detection. Plates were read at 405 nm on the Spectramax Plus.

As for “Biotin-LWVTVYYGVPVWKEATTTLFCASDAK [Nterm peptide]”, in the test with N terminal peptide, the “serum antibodies binding N-terminal peptide” value is “contains antibodies capable of binding both whole gp120 and N-terminal peptide”. Further, in the test on gp120 (BALB/c mice, biotinylated peptide linked to avidin, i.p.), the “immunogenicity in the mouse model” value was “immunogenic”. Further, the “serum antibodies binding whole gp120” value in the test with gp120 (i.p. immunizations days 1, 15, 30, 45, 60, sera day 67, compared to control mice, FIG. 13 A) was “contains antibodies capable of binding both whole gp120 and N-terminal peptide”. Besides, the “binding to IgG1 b12 relative to the scrambled peptide” value in the test with IgG1 b12 (antigen capture ELISA) is recorded as 4 times. In the test with IgG1 b12 (plates coated with 2.5 μg/ml IgG1 b12, serially diluted biotinylated peptide, FIG. 11), the “peptide binding to IgG1 b12” value is “bound IgG1 b12, and this binding was dose dependant”.
In turn, IgG1b12 human monoclonal antibody had a fold binding against the scrambled peptide in test [1] of 4 times.
Consider “KLWVTVYYGVPVWKEATTTLFCASDAKAYDTE [amino terminus]”, for which the “recognition of synthetic peptide by IgG1b12” value in the test on IgG1b12 antibody is given as “specifically recognizes”.
